Reference: US4189499A, “Lysine 4-allyloxy-3-chlorophenylacetate and method of its preparation” (priority 1979, dated 1980)
“And” between values parts separate entries of the source, which are not always exact repeats. Identical values can stand only once. “Also recorded” adds a separate entry of the source. Counter-ions that a name gives are not always drawn. Like-named read-outs stand apart in the source and are kept apart here.

Experiments:
[1] = Pharmacokinetics from plasma levels after oral, rectal and intramuscular administration in rabbits; type: in vivo, rabbit; conditions: for Ka / t1/2α / CL/F / k el / Cmax / Vd/F / half-life / Tmax: ± E.S.M.; for CL/F / k el / Cmax / Vd/F / half-life / Tmax: rabbit, plasma; for Cmax: read-out: Cmax; for Vd/F: read-out: Vdβ; for half-life: read-out: t1/2β; for Tmax: read-out: tmax (converted)
Procedure: (§1) The following pharmacological experimentation was carried out in order to estimate the comparative absorption and bioavailability through various administration routes in rabbits of Alclofenac acid and its lysine salt.

[2] = Extent of availability after different routes, intravenous administration as reference; type: in vivo, rabbit; conditions: i.v. as reference
Procedure: as §1

[3] = Solubility; type: physicochemical; conditions: in words, solvent as stated
[4] = cited from earlier work
[5] = test system: rabbit dorsal long muscle; experiment: Local tolerability after intramuscular injection, muscle removed at 24 hours, irritation by arbitrary scores; type: in vivo; parameters: scale not given here
Procedure: Such a tolerability was estimated after injection of equivalent solutions of the various preparations, effected in the rabbit dorsal long muscle, removing muscle 24 hours after injection and estimating the degree of induced irritation through arbitrary scores.

[6] = Stability and hygroscopicity; type: physicochemical; conditions: for Hygroscopicity: isolated solid; for Stability of the solution: in words
[7] = pH of aqueous solution; type: physicochemical; conditions: aqueous solution as prepared
[8] = General tolerability by route of administration; type: in vivo; conditions: intravenous or intramuscular; listed as Mono-ethanolamine solution
[9] = intravenous route, prior knowledge; cited from earlier work
[10] = 100 mg/ml (as acid), 0.5 ml injected
[11] = 131 mg/ml (as acid), 0.25 ml injected
[12] = 100 mg/ml (as acid), 0.25 ml injected
[13] = listed as Mono-ethanolamine solution

## C=CCOc1ccc(CC(=O)O)cc1Cl [Alclofenac, 4-allyloxy-3-chlorophenylacetic acid, reference compound]
[1]; P.OS 90 mg/kg
  Ka: 0.0146 ± 0.0018 min⁻¹
  t1/2α: 0.85 ± 0.083333 h
[1]; RECTAL 100 mg/kg
  Ka: 0.053 ± 0.10 min⁻¹
  t1/2α: 0.233 ± 0.05 h
[1]; oral and rectal route, rabbits
  absorption, in words: well absorbed through the oral and rectal route
[1]; 100 mg/kg, RECTAL 100 mg/kg
  CL/F: 0.54 ± 0.04 mL/min/kg
  k el: 3.83e-05 s⁻¹
  Cmax: 425 ± 11.9 µg/mL
  Vd/F: 0.274 ± 0.06 L/kg
  half-life: 5.12 ± 0.583 h
  Tmax: 1.1 h
[1]; po, 90 mg/kg, P.OS 90 mg/kg
  CL/F: 0.64 ± 0.06 mL/min/kg
  k el: 3e-05 s⁻¹
  Cmax: 358 ± 47.8 µg/mL
  Vd/F: 0.326 ± 0.045 L/kg
  half-life: 6.9 ± 0.667 h
  Tmax: 2.88 h
[2]; P.O. 90 mg/kg, 0-4 h, 90 mg/kg, 240 min
  % Availability (AUC o → 4h): 42.4%
[2]; P.O. 90 mg/kg, 90 mg/kg
  % Availability (practical AUC): 84.0%
  % Availability (theoretical AUC): 89.2%
[2]; Rectal 100 mg/kg, 0-2 h, 100 mg/kg, 120 min
  % Availability (AUC o → 2h): 83.24%
[2]; Rectal 100 mg/kg, 100 mg/kg
  % Availability (practical AUC): 105.7%
  % Availability (theoretical AUC): 87.2%
[3]
  Solubility: insoluble in the physiological fluids; also recorded: insolubility
[4]; in vivo
  antiinflammatory properties: antiinflammatory properties
[4]; versus acetylsalicylic acid
  analgesic activity: marked analgesic activity, higher than acetylsalicylic acid

## C=CCOc1ccc(CC(=O)O)cc1Cl [Alclofenac-Arginine]
[5]; [10]
  SCORES at 24 hours, Average: 3.9
  SCORES at 24 hours, individual: 6.5 and 2.5 and 3 and 3.5
[5]; [11]
  SCORES at 24 hours, Average: 1.6
  SCORES at 24 hours, individual: 1.5 and 3.5 and 3 and 0
[3]; listed as Arginine salt
  Solubility: scarcely water soluble
[6]; listed as Arginine salt
  Hygroscopicity: non-hygroscopic
[7]; listed as Arginine salt
  pH of solution: 7.7

## C=CCOc1ccc(CC(=O)O)cc1Cl [Alclofenac-Ethanolamine]
[5]; [12]
  SCORES at 24 hours, Average: 3
  SCORES at 24 hours, individual: 3 and 3.5 and 2.5
[8]
  tolerability on injection: poor tolerability
[6]; [13]
  Stability of the solution: stable
[7]; [13]
  pH of solution: 7.5

## C=CCOc1ccc(CC(=O)O)cc1Cl [Alclofenac-Methylglucose]
[5]; [12]
  SCORES at 24 hours, Average: 2
  SCORES at 24 hours, individual: 0 and 3 (2×)
[5]; [10]
  SCORES at 24 hours, Average: 5.4
  SCORES at 24 hours, individual: 2 and 5 and 10 and 4.5
[6]; listed as Methylglucamine salt
  Stability of the solution: not very stable
  Hygroscopicity: very hygroscopic

## C=CCOc1ccc(CC(=O)O)cc1Cl [sodic salt of the acid]
[9]
  tolerability of injection: scarcely tolerated
